Test in all cases: Kinase panel (mobility shift)
What all share (type): biochemical

Assay [1] deals with BRK (Homo sapiens, UniProt Q13882). The method, then:
(§1) The disclosed compounds were tested for activity against a panel of 299 kinases. The target enzyme was incubated with fluorescently labeled substrate and test compounds in a standardized reaction mixture in 384 well plates. Upon termination of the reaction, samples were introduced onto microfluidic chips. The samples migrated through channels in the chips and product and substrate were separated based on the difference in their charge (electrophoretic mobility shift). Enzyme activity was measured by direct comparison of the fluorescence in the product and substrate peaks. […] In the tables A=95% or greater at 5 um, B=90%-94% at 5 um, and C=80%-89% at 5 um. [note to draft: we included category D for 50-79 and category E is less than 50%. Feel free to remove if not needed)

In assay [2] the target is EPH-A5 (Homo sapiens, UniProt P54756). As to conditions: at 5 um. The method, then:
as §1

In assay [3] the target is T1, EPH-B2 (Homo sapiens, UniProt P29323).
T1 sequence (P29323 19-1055): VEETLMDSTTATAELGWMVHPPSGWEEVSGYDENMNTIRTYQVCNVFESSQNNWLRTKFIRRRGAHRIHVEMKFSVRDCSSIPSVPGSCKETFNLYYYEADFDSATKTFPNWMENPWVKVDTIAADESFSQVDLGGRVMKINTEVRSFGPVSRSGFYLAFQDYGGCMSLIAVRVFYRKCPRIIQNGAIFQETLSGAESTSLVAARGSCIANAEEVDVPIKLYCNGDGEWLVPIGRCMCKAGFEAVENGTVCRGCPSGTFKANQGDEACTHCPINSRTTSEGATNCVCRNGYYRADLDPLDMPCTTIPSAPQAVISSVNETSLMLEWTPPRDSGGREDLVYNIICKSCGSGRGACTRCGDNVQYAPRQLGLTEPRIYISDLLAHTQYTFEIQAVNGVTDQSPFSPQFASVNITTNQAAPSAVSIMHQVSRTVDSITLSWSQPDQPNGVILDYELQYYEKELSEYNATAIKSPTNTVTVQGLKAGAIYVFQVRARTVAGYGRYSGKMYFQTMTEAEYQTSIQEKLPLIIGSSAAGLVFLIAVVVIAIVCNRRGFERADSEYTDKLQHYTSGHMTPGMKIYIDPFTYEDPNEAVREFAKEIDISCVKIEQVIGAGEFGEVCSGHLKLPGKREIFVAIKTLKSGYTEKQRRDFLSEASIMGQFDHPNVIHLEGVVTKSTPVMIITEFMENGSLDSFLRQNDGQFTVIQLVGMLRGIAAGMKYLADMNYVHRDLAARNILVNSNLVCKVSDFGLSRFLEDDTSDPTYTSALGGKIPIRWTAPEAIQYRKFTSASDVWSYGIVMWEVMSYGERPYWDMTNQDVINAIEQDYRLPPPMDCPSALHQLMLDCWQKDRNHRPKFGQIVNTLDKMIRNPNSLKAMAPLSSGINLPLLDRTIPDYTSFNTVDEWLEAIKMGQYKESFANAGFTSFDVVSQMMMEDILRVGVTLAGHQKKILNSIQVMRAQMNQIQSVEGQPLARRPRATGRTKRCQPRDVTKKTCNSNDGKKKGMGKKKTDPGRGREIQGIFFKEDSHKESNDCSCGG
The following applies: at 5 um. As for the experimental part:
as §1

Assay [4] has as its target T2, EPH-B4 (Homo sapiens, UniProt P54760).
T2 sequence (P54760 16-987): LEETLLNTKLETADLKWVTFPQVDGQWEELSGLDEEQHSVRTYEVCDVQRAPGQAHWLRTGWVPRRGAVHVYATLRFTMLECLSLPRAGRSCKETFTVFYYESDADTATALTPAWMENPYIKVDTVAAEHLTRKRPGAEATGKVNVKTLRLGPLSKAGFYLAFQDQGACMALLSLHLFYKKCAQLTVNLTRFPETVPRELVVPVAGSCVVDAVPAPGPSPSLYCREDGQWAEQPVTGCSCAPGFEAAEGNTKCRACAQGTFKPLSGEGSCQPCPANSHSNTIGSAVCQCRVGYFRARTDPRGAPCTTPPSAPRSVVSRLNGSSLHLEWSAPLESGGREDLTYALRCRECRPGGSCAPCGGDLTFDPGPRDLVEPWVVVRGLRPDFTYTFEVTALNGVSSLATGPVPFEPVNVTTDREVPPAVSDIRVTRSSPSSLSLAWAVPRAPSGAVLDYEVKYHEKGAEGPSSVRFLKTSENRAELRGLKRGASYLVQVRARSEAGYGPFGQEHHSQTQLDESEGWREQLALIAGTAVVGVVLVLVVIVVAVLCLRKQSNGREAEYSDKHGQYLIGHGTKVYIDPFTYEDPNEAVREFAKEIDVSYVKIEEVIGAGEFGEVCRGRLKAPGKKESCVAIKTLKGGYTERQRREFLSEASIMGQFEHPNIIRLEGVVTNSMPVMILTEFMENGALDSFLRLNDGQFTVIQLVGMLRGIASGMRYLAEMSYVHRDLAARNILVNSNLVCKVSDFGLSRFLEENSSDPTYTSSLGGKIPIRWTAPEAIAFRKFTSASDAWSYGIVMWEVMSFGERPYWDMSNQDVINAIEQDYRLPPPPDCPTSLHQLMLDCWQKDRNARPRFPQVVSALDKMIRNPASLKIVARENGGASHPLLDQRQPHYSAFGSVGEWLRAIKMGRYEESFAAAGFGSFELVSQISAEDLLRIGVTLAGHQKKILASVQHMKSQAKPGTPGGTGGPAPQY
As for the experimental part: as §1

Assay [5] addresses HIPK3 (Homo sapiens, UniProt Q9H422). As for the experimental part: as §1
Assay [6] addresses LCK (Homo sapiens, UniProt P06239). The method, then:
as §1

In assay [7] the target is LOK (Homo sapiens, UniProt O94804). As to conditions: at 5 um. As for the experimental part: as §1
The target in assay [8] is P38-b (Homo sapiens, UniProt Q15759). The method, then: as §1
Assay [9] has as its target TRKA (Homo sapiens, UniProt P04629). The method, then:
as §1

Sequence of EPH-A5 (P54756 25-1037, species assumed): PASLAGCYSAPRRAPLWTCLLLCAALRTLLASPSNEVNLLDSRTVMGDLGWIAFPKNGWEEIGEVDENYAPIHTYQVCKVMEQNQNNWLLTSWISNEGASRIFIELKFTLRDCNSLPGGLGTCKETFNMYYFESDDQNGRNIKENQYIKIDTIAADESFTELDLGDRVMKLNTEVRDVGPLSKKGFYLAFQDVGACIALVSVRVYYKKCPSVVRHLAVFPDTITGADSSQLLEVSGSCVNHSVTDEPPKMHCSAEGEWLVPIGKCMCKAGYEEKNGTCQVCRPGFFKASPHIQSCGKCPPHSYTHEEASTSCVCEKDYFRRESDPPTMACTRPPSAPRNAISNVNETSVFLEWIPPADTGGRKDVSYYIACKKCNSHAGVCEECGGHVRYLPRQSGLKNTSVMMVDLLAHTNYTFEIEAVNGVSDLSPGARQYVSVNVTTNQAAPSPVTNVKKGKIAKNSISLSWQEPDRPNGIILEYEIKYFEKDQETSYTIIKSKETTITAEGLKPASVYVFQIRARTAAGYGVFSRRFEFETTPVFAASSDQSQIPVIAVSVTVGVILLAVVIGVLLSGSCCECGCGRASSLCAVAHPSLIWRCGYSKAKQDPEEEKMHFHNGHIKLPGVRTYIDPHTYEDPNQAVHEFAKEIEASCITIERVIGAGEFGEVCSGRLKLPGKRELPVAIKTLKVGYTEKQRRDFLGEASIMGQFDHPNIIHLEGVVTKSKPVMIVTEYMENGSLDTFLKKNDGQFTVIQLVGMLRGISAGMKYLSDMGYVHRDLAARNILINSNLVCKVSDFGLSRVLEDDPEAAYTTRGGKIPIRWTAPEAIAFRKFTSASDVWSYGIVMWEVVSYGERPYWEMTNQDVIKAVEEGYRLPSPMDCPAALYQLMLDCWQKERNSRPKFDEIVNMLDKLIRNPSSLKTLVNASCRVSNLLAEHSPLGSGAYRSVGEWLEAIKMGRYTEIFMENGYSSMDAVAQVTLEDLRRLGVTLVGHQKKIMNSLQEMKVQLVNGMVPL
Sequence of BRK (Q13882 whole entry, species assumed): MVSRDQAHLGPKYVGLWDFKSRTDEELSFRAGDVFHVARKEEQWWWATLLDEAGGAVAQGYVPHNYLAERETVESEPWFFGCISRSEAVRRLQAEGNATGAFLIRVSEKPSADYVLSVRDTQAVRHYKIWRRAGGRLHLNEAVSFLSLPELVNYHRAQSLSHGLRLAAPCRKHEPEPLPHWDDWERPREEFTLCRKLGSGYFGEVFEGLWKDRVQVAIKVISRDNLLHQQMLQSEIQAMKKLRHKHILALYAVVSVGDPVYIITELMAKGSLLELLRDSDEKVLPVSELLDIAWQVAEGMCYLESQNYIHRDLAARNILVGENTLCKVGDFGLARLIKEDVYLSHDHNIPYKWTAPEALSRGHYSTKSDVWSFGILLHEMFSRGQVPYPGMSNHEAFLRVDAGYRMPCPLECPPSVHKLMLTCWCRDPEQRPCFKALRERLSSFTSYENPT
Sequence of LCK (P06239 whole entry, species assumed): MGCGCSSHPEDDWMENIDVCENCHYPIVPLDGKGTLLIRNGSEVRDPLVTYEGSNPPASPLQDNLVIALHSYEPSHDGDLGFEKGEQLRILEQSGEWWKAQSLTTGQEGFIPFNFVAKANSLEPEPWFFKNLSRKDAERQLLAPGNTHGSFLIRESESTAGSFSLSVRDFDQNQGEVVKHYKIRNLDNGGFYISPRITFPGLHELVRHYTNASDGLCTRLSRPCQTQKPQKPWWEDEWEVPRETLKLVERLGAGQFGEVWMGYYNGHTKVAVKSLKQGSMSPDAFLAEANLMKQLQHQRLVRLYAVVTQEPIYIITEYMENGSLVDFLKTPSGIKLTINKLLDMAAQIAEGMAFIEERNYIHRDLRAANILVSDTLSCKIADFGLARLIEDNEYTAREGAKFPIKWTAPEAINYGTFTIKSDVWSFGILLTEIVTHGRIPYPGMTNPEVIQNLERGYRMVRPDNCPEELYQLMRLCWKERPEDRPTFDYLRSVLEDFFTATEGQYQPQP
Sequence of TRKA (P04629 33-796, species assumed): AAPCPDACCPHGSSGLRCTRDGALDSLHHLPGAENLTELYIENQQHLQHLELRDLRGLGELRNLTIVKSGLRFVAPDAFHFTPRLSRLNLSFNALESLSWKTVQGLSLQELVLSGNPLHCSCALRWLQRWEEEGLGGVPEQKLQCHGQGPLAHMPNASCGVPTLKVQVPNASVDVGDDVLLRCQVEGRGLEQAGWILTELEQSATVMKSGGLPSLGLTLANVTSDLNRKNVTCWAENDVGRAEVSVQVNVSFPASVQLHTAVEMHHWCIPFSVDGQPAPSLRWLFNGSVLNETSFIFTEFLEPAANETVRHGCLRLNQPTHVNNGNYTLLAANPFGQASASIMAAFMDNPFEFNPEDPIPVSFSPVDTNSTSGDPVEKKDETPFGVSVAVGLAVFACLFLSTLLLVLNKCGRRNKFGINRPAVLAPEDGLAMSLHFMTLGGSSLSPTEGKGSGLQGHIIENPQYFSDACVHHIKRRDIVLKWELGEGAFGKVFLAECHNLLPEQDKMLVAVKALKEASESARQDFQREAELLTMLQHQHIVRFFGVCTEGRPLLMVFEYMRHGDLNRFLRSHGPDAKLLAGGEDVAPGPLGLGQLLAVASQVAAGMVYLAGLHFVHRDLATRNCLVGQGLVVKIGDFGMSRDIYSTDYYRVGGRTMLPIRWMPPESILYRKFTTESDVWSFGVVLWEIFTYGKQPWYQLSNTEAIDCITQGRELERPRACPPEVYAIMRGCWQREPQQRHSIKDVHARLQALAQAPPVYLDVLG
Sequence of HIPK3 (Q9H422 whole entry, species assumed): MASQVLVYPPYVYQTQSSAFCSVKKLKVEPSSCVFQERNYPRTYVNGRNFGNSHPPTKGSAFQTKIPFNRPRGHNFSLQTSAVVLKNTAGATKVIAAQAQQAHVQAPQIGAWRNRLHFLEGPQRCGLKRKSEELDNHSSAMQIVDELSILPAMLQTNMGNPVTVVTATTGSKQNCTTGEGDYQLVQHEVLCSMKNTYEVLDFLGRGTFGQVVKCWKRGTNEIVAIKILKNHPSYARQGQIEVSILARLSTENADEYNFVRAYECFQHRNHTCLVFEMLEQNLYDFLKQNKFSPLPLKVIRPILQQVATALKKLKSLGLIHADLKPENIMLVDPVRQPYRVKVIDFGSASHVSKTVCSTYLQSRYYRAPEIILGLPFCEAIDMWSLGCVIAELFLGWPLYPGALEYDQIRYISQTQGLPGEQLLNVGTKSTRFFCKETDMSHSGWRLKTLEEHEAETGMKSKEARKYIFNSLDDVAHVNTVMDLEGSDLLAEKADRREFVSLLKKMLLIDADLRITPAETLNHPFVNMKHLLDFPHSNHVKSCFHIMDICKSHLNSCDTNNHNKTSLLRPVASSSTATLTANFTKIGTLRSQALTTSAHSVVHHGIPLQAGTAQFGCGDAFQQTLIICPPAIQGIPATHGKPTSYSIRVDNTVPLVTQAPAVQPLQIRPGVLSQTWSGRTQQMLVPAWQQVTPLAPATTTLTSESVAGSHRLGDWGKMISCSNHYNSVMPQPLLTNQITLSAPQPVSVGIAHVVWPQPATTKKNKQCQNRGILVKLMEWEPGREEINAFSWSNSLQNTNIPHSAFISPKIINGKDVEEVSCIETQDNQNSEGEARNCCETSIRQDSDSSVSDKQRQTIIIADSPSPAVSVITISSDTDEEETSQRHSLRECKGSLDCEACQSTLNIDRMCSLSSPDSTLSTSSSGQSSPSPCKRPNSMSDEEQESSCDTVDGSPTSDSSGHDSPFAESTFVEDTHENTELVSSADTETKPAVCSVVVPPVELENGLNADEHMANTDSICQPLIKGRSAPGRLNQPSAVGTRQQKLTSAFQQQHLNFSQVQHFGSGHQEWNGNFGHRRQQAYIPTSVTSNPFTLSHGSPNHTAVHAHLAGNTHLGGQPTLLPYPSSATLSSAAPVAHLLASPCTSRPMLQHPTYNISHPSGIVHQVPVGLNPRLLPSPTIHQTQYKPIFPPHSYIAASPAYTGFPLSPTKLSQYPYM
Sequence of P38-b (Q15759 whole entry, species assumed): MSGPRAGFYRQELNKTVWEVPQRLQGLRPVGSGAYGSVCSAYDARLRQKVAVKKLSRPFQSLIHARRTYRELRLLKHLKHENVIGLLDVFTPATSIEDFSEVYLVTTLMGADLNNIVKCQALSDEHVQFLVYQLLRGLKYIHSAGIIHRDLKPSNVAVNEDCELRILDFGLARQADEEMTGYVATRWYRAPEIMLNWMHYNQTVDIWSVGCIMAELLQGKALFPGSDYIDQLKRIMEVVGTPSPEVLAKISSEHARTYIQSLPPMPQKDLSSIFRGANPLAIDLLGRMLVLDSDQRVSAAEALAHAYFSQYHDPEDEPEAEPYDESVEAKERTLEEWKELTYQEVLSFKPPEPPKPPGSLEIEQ

A word on the inhibition: it is the percentage by which the read-out fell short of the control. On to `CSc1nc(C(=O)Nc2ccc(Oc3ccnc(C(=O)NC4CNC4)c3)c(F)c2)c(-c2ccc(F)s2)o1` [Compound 27], for which the inhibition at 5 µM in [1], in assay [4], in assay [5], in assay [6], in assay [8] and in assay [9] was under 50% throughout. Moreover, the “inhibition of kinase activity, EPH-A5” value in assay [2] is recorded as “E (category E is less than 50%)”. Also, in assay [3], the “inhibition of kinase activity, EPH-B2” value is reported as “E (category E is less than 50%)”. Moreover, the “inhibition of kinase activity, LOK” value in [7] is “E (category E is less than 50%)”.
With `CSc1nc(C(=O)Nc2ccc(Oc3ccnc(C(=O)NC4COC4)c3)c(F)c2)c(-c2ccc(F)s2)o1` [Compound 28], the inhibition at 5 µM in assay [1], in assay [4], in assay [5], in [6], in assay [8] and in assay [9] was under 50% in each case. Besides, the “inhibition of kinase activity, EPH-A5” value in assay [2] is reported as “E (category E is less than 50%)”. Also, the “inhibition of kinase activity, EPH-B2” value in assay [3] was “E (category E is less than 50%)”. Also, the “inhibition of kinase activity, LOK” value in assay [7] was “E (category E is less than 50%)”.
With `CSc1nc(C(=O)Nc2ccc(Oc3ccnc(C(=O)NC4CNC4)c3)c(F)c2)c(-c2ccc(F)cc2)o1` [Compound 29], the inhibition at 5 µM in assay [1] was at least 95%; in [4] it was under 50%; in [5], 80 to 89%; in assay [6] it was under 50%; in assay [8], 80 to 89%; in [9] it was under 50%. Also, in assay [2], the “inhibition of kinase activity, EPH-A5” value is recorded as “E (category E is less than 50%)”. Besides, the “inhibition of kinase activity, EPH-B2” value in assay [3] is reported as “E (category E is less than 50%)”. Moreover, the “inhibition of kinase activity, LOK” value in assay [7] is given as “D (category D for 50-79)”.
As to `CNC(=O)c1cc(Oc2ccc(NC(=O)c3nc(COC)oc3-c3ccc(F)cc3)cc2F)ccn1` [Compound 30], the inhibition at 5 µM in assay [1] was at least 95%; in assay [4], 80 to 89%; in assay [5], 90 to 94%; in [6], 80 to 89%; in [8], 50 to 79%; in assay [9] it was 90 to 94%. In [2], the “inhibition of kinase activity, EPH-A5” value is “C (C=80%-89% at 5 um)”. In addition, the “inhibition of kinase activity, EPH-B2” value in assay [3] is given as “B (B=90%-94% at 5 um)”. Further, the “inhibition of kinase activity, LOK” value in assay [7] is “A (A=95% or greater at 5 um)”.
Consider `CSc1nc(C(=O)Nc2ccc(Oc3ccnc(C(=O)NC4COC4)c3)c(F)c2)c(-c2ccc(F)cc2)o1` [Compound 31], for which the inhibition at 5 µM in [1] is 80 to 89%; in assay [4], under 50%; in assay [5], under 50%; in assay [6], under 50%; in [8], under 50%; in [9], under 50%. In addition, the “inhibition of kinase activity, EPH-A5” value in assay [2] was “E (category E is less than 50%)”. Also, the “inhibition of kinase activity, EPH-B2” value in [3] is listed as “D (category D for 50-79)”. The “inhibition of kinase activity, LOK” value in assay [7] is reported as “D (category D for 50-79)”.
Take `CNC(=O)c1cc(Oc2ccc(NC(=O)c3nc(OC4CC4)oc3-c3ccc(F)cc3)cc2F)ccn1` [Compound 32]: the inhibition at 5 µM is at least 95% in assay [1]; 50 to 79% in assay [4]; 50 to 79% in assay [5]; 80 to 89% in assay [6]; 50 to 79% in assay [8]; 50 to 79% in assay [9]. For the same compound, the “inhibition of kinase activity, EPH-A5” value in assay [2] is “D (category D for 50-79)”. Besides, in assay [3], the “inhibition of kinase activity, EPH-B2” value was “D (category D for 50-79)”. Besides, the “inhibition of kinase activity, LOK” value in assay [7] is “B (B=90%-94% at 5 um)”.
Take `[2H]C([2H])([2H])NC(=O)c1cc(Oc2ccc(NC(=O)c3nc(SC)oc3-c3ccc(F)c(F)c3)cc2F)ccn1` [Compound 33]: the inhibition at 5 µM in assay [1] was 50 to 79%; in assay [4], under 50%; in assay [5], 50 to 79%; in assay [6] it was 50 to 79%; in assay [8], under 50%; in assay [9], 50 to 79%. Also, in assay [2], the “inhibition of kinase activity, EPH-A5” value is given as “E (category E is less than 50%)”. Moreover, the “inhibition of kinase activity, EPH-B2” value in assay [3] is “E (category E is less than 50%)”. Besides, the “inhibition of kinase activity, LOK” value in [7] is listed as “C (C=80%-89% at 5 um)”.
`CNC(=O)c1cc(Oc2ccc(NC(=O)c3nc(SC(C)C)oc3-c3ccc(F)cc3)cc2F)ccn1` [Compound 34]: the inhibition at 5 µM in assay [1] was 90 to 94%; in assay [4], 80 to 89%; in assay [5] it was under 50%; in [6], 80 to 89%; in assay [8] it was 50 to 79%; in assay [9] it was 80 to 89%. The “inhibition of kinase activity, EPH-A5” value in assay [2] is “C (C=80%-89% at 5 um)”. Besides, in [3], the “inhibition of kinase activity, EPH-B2” value was “C (C=80%-89% at 5 um)”. Also, the “inhibition of kinase activity, LOK” value in assay [7] is given as “A (A=95% or greater at 5 um)”.
Turning to `[2H]C([2H])([2H])NC(=O)c1cc(Oc2ccc(NC(=O)c3nc(SC)oc3-c3ccc(F)s3)cc2F)ccn1` [Compound 35], the inhibition at 5 µM in assay [1], in assay [4], in assay [5], in assay [6], in assay [8] and in [9] was under 50% in each case. Also, the “inhibition of kinase activity, EPH-A5” value in [2] is “E (category E is less than 50%)”. Also, in [3], the “inhibition of kinase activity, EPH-B2” value is “D (category D for 50-79)”. The “inhibition of kinase activity, LOK” value in assay [7] was “D (category D for 50-79)”.
For the compound `CNC(=O)c1ccc(Oc2ccc(NC(=O)c3nc(Cl)oc3-c3ccc(F)cc3)c(F)c2)cn1` [Compound 36], the inhibition at 5 µM in assay [1] is under 50%; in assay [4] it was under 50%; in [5], 50 to 79%; in assay [6], under 50%; in [8] it was under 50%; in assay [9], under 50%. In addition, the “inhibition of kinase activity, EPH-A5” value in [2] is given as “E (category E is less than 50%)”. In addition, the “inhibition of kinase activity, EPH-B2” value in [3] is given as “E (category E is less than 50%)”. Besides, the “inhibition of kinase activity, LOK” value in assay [7] was “E (category E is less than 50%)”.

The values above are taken from US11629143B2, “HipK4 inhibitors and uses thereof” (Vibliome Therapeutics, LLC, priority 2020, dated 2023).
